Experimental data taken from patent EP0233459A1, “Medicament containing a magnesium-urea complex of acetylsalicylic acid and process for the preparation of this complex” (ARTIKA INTERNATIONAL (HONG-KONG) LIMITED, priority 1986, dated 1987).

How the values were obtained:
[1] = test system: oedème provoqué sur patte de rat; assay: Induced rat paw oedema (formol or ovalbumine; tables do not say which); type: in vivo; settings: for Δ V1 heure: 1 heure; for Δ V1 heure / Δ V3 heures / VARIATIONS DE VOLUME EXPRIME EN % / INDICE DE PROTECTION: 20 mg/kg en équivalent aspirine; for Δ V3 heures: 3 heures
Experimental: Deux tests de production d'oedème provoqué sur patte de rat, l'un au formol, et l'autre à l'ovalbumine ont été choisis. Dans les deux cas les mesures ont été opérées en incluant une série d'animaux traitée avec de l'aspirine, en comparaison de celle traitée avec l'ASMU.
La dose d'anti-inflammatoire est de 20 mg/kg dans les trois cas, en équivalent aspirine.

souris [2] = assay: Hot plate test (analgesic activity); type: in vivo; settings: moyenne de dix essais
From the text: Le test dit "de la plaque chauffante" a donc été pratiqué pour déterminer de la valeur de l'ASMU en comparaison avec l'aspirine. Le principe de la méthode consiste à poser une souris sur une plaque dont on a élevé la température en fonction du temps. On note la température à laquelle la souris saute, la sensation de chaleur devenant douleur. Cette température est relativement fixe pour chaque animal.
En recommançant la même expérience avec la souris après administration d'une dose d'un analgésique, on notera une température plus élevée qui sera fonction de la dose et de l'action antalgique de la substance.
Dans le tableau V ci-après ont été rassemblés les ré-sultats, correspondants à une moyenne de dix essais obtenus pour l'aspirine (AAS), l'"ASPEGIC" (ASL) et l'ASMU.

oreille de lapin = settings: in vivo
From the text: Une expérience a été menée sur lapins, afin de déterminer le temps de saignement modifié par l'administration d'ASMU et d'aspirine à doses équivalentes.

muqueuse gastrique = type: in vivo, rat
From the text: En addition des résultats obtenus lors de l'étude de la toxicité générale de l'ASMU, une expérimentation particulière a été menée sur le rat pour déterminer de façon plus précise l'action irritant sur la muqueuse gastrique que peut développer l'ASMU par rapport à l'aspirine.
Le rat placé dans des conditions de contrainte (cage de petite dimension, n'interdisant pas le mouvement, mais empêchant l'animal de se déplacer et même de se retourner) pendant une durée de douze heures pendant plusieurs jours, développe rapidement une irritation de l'estomac qui évolue jusqu'à l'ulcère.
Sur cet animal sensibilisé, on peut tester, en même temps que la contrainte, l'action de médicaments irritants qui accélèrent le processus de formation de l'ulcère. En fin d'expé-rience, on sacrifie les animaux, et l'examen de la muqueuse gastrique permet de tirer des conclusions sur le pouvoir irritant des substances en comparaison avec les produits de référence.

[3] = même dose d'aspirine, une heure après administration; 60 min; cited from earlier work
[4] = aspirine, literature knowledge; cited from earlier work
[5] = une heure après l'administration, literature knowledge; cited from earlier work
[6] = pH of the aqueous solution; type: physicochemical; settings: solution aqueuse, dix pour cent (p/v)
From the text: La solution aqueuse du complexe ASMU, à concentration de dix pour cent (p/v), présente une valeur de pH très proche de 6, donc proche de la neutralité et tout à fait compatible avec celui du pH sanguin.

rat [7] = settings: in vivo
From the text: (§1) Des expérimentations ont été réalisées sur l'ASMU. La toxicité aiguë a été étudiée par la détermination classique de la DL₅₀, correspondant à la dose de substance qui, administrée à un groupe d'animaux, provoque la port de la moitié d'entre eux.

souris [8] = settings: in vivo
From the text: as §1

rat [9] = settings: in vivo; remark: listed apart in the source
porc = settings: in vivo
[10] = test system: ostéochondrites déformantes infectieuses; assay: Therapeutic use in infectious deforming osteochondritis; type: in vivo; settings: tous les cas traités
From the text: A titre d'exemple d'application thérapeutique inhabituelle, on a pu observer l'action curative de l'ASMU dans le traitement d'ostéochondrites déformantes infectieuses. […] Seule la déformation a persisté lorsqu'elle existait, comme on pouvait s'y attendre.

[11] = état sec
[12] = human, in vivo, po, 5 h
[13] = in vivo
[14] = in vivo; remark: listed apart in the source
From the text: L'étude de la biodisponibilité de l'ASMU a été effec­tuée sur diverses espèces animales et sur l'homme, en réalisant des dosages de la forme acétylée et désacétylée dans le temps.

Which “Δ V1 heure” value ([1]; 20 mg/kg) does the source give for `CC(=O)Oc1ccccc1C(=O)O` [A S L] here?
The value was 0,490±0,04 cm^3.

And the “Δ V3 heures” value ([1]; 20 mg/kg)?
The value was 0,700±0,15 cm^3.

And the “VARIATIONS DE VOLUME EXPRIME EN %” value ([1]; A 1 heure, 20 mg/kg)?
The value was 50,16%.

What about the “VARIATIONS DE VOLUME EXPRIME EN %” value ([1]; A 3 heures, 20 mg/kg) of the same molecule?
The value was 72,29%.

What about the “INDICE DE PROTECTION” value ([1]; à 1 heure, 20 mg/kg) of the same molecule?
Its value is 35%.

And the “INDICE DE PROTECTION” value ([1]; à 3 heures, 20 mg/kg)?
Its value is 43%.

What about the “Δt(°C)” value (souris [2]; 1 heure après administration) of the same molecule?
Its value is 2,15 °C.

And the “Δt(°C)” value (souris [2]; 2 heures après administration)?
Its value is 1,90 °C.

And the “Δt(°C)” value (souris [2]; 3 heures après administration)?
Its value is 0,45 °C.

And the “Δt(°C)” value (souris [2]; ½ heure après administration)?
The value was 1,25 °C.

What about the “ALLONGEMENT DU TEMPS DE SAIGNEMENT” value (oreille de lapin) of the same molecule?
Its value is 35%.

For `CC(=O)Oc1ccccc1C(=O)O` [AAS, aspirine], which “Δ V1 heure” value ([1]; 20 mg/kg) is on record?
Its value is 0,580±0,03 cm^3.

And the “Δ V3 heures” value ([1]; 20 mg/kg)?
Its value is 0,930±0,05 cm^3.

What about the “VARIATIONS DE VOLUME EXPRIME EN %” value ([1]; A 1 heure, 20 mg/kg) of the same molecule?
Its value is 72%.

What about the “VARIATIONS DE VOLUME EXPRIME EN %” value ([1]; A 3 heures, 20 mg/kg) of the same molecule?
The value was 115,01%.

What about the “INDICE DE PROTECTION” value ([1]; à 1 heure, 20 mg/kg) of the same molecule?
Its value is 7%.

And the “INDICE DE PROTECTION” value ([1]; à 3 heures, 20 mg/kg)?
Its value is 10%.

What about the “Δt(°C)” value (souris [2]; 1 heure après administration) of the same molecule?
The value was 1,15 °C.

What about the “Δt(°C)” value (souris [2]; 2 heures après administration) of the same molecule?
Its value is 1,40 °C.

What about the “Δt(°C)” value (souris [2]; 3 heures après administration) of the same molecule?
Its value is 0,75 °C.

What about the “Δt(°C)” value (souris [2]; ½ heure après administration) of the same molecule?
Its value is 0,90 °C.

What about the “animaux traités avec ulcères” value (muqueuse gastrique; rat sous contrainte) of the same molecule?
Its value is 80 pour cent.

What about the “ALLONGEMENT DU TEMPS DE SAIGNEMENT” value (oreille de lapin) of the same molecule?
Its value is 66%.

And the “quantités d'aspirine retrouvées dans le sang” value [3]?
The value was roughly 3 mg par litre.

And the “part de la dose absorbée par l'organisme” value [4]?
The value was “deux tiers”.

What about the “part de la dose initiale sous la forme acétylée” value [5] of the same molecule?
Its value is roughly 10 pour 100.

Which results are given for `CC(=O)Oc1ccccc1C(=O)[O-].CC(=O)Oc1ccccc1C(=O)[O-].NC(N)=O.[Mg+2]` [ASMU, acétylsalicylate de magnésium-urée]?
pH [6]: ~6; Δ V1 heure [1]: 0,150±0,04 cm^3; Δ V3 heures [1]: 0,170±0,03 cm^3; VARIATIONS DE VOLUME EXPRIME EN % ([1]; A 1 heure): 16,48%; VARIATIONS DE VOLUME EXPRIME EN % ([1]; A 3 heures): 18,61%; activité anti-inflammatoire par rapport à celle de l'aspirine ([1]; en moyenne, tests au formol et à l'ovalbumine): dix fois supérieure; INDICE DE PROTECTION ([1]; à 1 heure): 78,6%; INDICE DE PROTECTION ([1]; à 3 heures): 85,4%; Δt(°C) (souris [2]; 1 heure après administration): 4,75 °C; Δt(°C) (souris [2]; 2 heures après administration): 4,90 °C; Δt(°C) (souris [2]; 3 heures après administration): 4,90 °C; Δt(°C) (souris [2]; ½ heure après administration): 3,70 °C; toxicité aiguë (DL₅₀) diminuée par rapport à l'équivalent aspirine (rat [7]): ~20 pour cent; toxicité aiguë (DL₅₀) diminuée par rapport à l'équivalent aspirine (souris [8]): ~20 pour cent; toxicité chronique: examens cliniques et anatomopathologiques (rat [9]): n'a pas provoqué d'anomalie particulière; toxicité chronique: lésion rénale ou stomacale (rat [9]): aucun signe de lésion rénale ou stomacale; toxicité chronique: examens cliniques et anatomopathologiques (porc): n'a pas provoqué d'anomalie particulière; toxicité chronique: lésion rénale ou stomacale (porc): aucun signe de lésion rénale ou stomacale; irritation de la muqueuse gastrique (muqueuse gastrique; rat, in vivo): irritation comparable, mais légèrement supérieure à celle des témoins; ALLONGEMENT DU TEMPS DE SAIGNEMENT (oreille de lapin): 7%; action curative [10]: l'inflammation a regressé, puis disparu; durée de conservation sans altération notable [11]: deux ans et demi; acétylsalicylémie [12]: 40 mg par litre de plasma; absorption [13]: pratiquement complète; acétylsalicylémie, fois plus élevée que celle d'une dose équivalente d'aspirine [14]: entre dix et quinze; salicylémie moyenne, % de la quantité circulante [14]: ~10 pour cent
